ChEMBL document CHEMBL5212743, “Selectivity Literature for EUbOPEN Chemogenomics Library wave 3” (2023)
Blank lines part the entries; values can stand above or below the compound they belong to.

Assays:
[1] = target: Phosphatidylinositol 4,5-bisphosphate 3-kinase catalytic subunit gamma isoform (Homo sapiens, UniProt P48736); assay: Selectivity interaction (KinomeScan (DiscoverX, competition-binding assay)) EUB0000178b PIK3CG
[2] = target: Cyclin-dependent kinase 7 (Homo sapiens) (UniProt P50613); assay: Selectivity interaction (KinomeScan (DiscoverX)) EUB0000702a CDK7; conditions: at 1 µM
[3] = tested on: T1, Receptor-type tyrosine-protein kinase FLT3 (Homo sapiens), P36888 [D835V]; assay: Selectivity interaction (KinomeScan (DiscoverX)) EUB0000702a FLT3; conditions: at 1 µM
T1 sequence (whole entry): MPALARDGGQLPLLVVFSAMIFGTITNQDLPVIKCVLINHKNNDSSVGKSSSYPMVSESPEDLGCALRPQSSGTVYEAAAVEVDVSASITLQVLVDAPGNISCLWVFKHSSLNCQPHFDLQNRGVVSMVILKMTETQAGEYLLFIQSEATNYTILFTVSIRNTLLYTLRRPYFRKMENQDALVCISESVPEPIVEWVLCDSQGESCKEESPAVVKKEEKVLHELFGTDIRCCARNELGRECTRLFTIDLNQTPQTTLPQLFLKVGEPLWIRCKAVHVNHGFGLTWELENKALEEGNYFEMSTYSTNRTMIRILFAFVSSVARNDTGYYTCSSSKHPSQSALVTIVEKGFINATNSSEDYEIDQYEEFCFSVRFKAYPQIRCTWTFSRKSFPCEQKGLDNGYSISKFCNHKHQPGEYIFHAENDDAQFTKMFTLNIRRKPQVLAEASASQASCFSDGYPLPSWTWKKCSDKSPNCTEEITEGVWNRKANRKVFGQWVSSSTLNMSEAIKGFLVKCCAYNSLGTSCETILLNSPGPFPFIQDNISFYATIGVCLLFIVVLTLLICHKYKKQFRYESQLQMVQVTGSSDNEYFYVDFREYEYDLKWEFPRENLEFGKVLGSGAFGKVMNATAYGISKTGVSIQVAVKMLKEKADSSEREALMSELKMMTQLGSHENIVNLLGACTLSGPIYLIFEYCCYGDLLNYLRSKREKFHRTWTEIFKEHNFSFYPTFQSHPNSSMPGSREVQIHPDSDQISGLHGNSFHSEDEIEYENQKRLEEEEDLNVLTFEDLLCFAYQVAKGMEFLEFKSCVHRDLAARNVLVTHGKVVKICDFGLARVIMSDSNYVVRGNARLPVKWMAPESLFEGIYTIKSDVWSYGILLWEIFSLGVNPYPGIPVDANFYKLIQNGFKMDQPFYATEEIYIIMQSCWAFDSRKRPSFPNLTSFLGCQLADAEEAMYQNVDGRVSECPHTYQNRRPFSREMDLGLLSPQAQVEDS

[4] = target: T2, Serine/threonine-protein kinase ULK2 (Homo sapiens) (UniProt Q8IYT8); assay: Selectivity interaction (KinomeScan (DiscoverX)) EUB0000702a ULK2; conditions: at 1 µM
T2 sequence (whole entry): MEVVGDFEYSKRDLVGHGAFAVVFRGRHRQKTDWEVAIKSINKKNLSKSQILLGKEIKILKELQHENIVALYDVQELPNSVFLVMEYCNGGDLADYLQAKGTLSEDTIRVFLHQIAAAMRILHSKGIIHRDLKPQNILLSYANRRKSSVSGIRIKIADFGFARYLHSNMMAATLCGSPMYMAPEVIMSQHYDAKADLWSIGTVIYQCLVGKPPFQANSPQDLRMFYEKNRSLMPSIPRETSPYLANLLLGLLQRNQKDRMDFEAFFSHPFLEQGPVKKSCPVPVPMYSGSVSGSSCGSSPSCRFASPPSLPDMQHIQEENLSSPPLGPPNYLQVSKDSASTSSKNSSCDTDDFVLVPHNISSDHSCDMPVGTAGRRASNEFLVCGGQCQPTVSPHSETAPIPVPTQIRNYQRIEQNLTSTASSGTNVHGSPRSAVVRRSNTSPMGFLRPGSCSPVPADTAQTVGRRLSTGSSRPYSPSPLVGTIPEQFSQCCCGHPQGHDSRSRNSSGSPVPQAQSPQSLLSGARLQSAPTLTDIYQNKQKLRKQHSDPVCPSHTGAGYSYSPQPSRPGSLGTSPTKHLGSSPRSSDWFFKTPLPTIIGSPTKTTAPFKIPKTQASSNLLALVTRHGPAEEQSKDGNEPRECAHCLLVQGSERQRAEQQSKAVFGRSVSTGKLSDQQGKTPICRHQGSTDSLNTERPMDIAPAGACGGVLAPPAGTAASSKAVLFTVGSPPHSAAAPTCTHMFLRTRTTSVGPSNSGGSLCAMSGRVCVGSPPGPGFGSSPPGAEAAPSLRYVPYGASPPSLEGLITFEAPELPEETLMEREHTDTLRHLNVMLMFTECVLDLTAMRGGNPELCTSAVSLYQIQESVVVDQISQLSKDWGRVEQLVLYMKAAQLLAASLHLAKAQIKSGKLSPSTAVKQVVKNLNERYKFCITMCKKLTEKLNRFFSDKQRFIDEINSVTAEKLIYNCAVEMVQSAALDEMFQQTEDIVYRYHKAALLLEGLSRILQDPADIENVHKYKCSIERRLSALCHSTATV

[5] = target: Serine/threonine-protein kinase Chk2 (Homo sapiens, UniProt O96017); assay: Selectivity interaction (KinomeScan (DiscoverX)) EUB0000702a CHEK2; conditions: at 1 µM
D(1A) dopamine receptor = D(1A) dopamine receptor (Homo sapiens, UniProt P21728); assay: Selectivity interaction (GPCR panel (PDSP screen)) EUB0000138c DRD1
[6] = target: Mitogen-activated protein kinase kinase kinase kinase 5 (Homo sapiens) (UniProt Q9Y4K4); conditions: at 1 µM
Chain of Mitogen-activated protein kinase kinase kinase kinase 5 (Homo sapiens) (Q9Y4K4 whole entry, looked up): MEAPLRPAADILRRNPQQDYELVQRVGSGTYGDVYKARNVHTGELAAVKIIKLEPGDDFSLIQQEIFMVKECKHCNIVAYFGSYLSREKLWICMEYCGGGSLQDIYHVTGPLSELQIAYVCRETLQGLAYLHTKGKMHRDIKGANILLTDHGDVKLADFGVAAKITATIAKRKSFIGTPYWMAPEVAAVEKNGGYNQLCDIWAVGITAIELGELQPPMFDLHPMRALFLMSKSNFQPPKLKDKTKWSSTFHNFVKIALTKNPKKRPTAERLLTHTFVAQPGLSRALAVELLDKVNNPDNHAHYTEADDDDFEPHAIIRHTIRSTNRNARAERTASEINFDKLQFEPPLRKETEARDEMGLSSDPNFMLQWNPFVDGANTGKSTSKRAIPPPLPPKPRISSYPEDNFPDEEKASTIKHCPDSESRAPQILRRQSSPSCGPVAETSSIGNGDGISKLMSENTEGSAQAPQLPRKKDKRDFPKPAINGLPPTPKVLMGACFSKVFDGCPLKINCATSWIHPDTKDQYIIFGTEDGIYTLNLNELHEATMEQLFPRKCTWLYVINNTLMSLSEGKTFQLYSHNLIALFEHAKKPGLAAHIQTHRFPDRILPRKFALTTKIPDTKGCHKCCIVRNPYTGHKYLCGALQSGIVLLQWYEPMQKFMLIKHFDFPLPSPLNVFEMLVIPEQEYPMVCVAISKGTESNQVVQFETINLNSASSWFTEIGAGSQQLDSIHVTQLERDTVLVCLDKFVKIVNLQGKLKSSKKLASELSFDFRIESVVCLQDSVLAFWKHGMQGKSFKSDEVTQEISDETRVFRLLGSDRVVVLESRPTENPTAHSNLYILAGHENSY

Chain of Cyclin-dependent kinase 7 (Homo sapiens) (P50613 whole entry): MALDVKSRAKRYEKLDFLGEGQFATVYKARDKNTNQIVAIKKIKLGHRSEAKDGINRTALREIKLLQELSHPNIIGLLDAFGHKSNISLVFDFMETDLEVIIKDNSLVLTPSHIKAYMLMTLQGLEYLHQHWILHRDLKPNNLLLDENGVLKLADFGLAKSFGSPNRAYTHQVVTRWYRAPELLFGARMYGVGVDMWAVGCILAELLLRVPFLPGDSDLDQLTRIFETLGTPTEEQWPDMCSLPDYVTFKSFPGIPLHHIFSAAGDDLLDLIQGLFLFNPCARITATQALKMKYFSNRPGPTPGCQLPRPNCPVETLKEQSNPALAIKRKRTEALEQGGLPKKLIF
Chain of Phosphatidylinositol 4,5-bisphosphate 3-kinase catalytic subunit gamma isoform (P48736 whole entry, canonical isoform): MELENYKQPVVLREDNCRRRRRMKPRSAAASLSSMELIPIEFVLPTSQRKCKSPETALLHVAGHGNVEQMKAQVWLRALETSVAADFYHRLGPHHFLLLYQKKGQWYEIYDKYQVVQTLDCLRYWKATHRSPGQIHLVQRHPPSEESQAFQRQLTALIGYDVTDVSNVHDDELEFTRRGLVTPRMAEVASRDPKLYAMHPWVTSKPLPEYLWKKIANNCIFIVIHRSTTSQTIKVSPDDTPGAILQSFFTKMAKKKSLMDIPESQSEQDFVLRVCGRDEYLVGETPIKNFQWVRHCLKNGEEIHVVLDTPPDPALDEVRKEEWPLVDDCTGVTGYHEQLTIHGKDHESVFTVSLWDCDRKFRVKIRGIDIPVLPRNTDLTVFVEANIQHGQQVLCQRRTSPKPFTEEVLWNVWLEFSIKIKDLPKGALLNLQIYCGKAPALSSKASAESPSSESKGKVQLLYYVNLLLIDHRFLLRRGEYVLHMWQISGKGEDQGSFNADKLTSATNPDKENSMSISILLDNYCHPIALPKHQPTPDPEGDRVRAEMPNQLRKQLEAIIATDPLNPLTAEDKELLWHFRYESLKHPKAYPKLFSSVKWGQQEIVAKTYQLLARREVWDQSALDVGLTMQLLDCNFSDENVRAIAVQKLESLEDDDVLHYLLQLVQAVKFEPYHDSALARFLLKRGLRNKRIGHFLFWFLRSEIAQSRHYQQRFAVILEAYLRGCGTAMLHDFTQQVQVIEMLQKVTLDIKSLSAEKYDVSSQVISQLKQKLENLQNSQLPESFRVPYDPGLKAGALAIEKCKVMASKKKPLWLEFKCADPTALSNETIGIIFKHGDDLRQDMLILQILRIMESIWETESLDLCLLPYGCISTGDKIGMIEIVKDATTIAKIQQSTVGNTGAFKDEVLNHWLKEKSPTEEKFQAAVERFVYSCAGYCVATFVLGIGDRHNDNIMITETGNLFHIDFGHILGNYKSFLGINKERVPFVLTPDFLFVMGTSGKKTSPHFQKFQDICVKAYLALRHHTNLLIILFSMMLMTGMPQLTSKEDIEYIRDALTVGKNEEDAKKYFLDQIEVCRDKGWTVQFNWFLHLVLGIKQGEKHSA
Chain of Serine/threonine-protein kinase Chk2 (O96017 whole entry): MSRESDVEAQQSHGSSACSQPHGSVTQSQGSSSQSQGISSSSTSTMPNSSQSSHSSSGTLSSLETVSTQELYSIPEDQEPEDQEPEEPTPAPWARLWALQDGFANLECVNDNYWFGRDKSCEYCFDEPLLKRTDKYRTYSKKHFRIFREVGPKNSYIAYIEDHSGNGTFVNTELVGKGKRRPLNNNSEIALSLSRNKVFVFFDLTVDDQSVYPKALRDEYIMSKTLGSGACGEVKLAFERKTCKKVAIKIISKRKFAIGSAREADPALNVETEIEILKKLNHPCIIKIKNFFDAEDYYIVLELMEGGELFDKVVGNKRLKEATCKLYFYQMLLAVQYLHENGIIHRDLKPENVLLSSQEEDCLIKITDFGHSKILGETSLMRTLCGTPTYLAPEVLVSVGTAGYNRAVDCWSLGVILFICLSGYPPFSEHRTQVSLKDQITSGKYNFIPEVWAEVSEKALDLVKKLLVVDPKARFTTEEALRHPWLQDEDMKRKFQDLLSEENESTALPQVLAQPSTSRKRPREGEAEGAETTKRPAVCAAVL
Chain of D(1A) dopamine receptor (P21728 whole entry): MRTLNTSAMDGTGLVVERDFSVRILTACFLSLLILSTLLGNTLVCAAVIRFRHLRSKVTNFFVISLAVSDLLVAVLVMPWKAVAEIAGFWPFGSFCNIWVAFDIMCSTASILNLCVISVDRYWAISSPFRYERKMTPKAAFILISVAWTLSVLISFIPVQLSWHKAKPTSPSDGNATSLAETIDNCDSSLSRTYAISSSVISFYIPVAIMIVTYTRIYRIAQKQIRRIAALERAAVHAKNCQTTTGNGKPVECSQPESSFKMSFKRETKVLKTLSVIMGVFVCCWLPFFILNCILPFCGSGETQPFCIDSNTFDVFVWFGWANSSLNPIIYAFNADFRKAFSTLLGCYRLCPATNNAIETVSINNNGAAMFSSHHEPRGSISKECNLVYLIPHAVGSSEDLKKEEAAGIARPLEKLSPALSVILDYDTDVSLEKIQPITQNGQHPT

- Kd [1]: 8.4 nM
SMILES: CN1C(=O)c2sccc2N(C)c2nc(Nc3ccc(S(N)(=O)=O)cc3)ncc21

- % of control [2]: 3.5%
- % of control [3]: 1.5%
- % of control [4]: 5.4%
- % of control [5]: 0%
SMILES: CN(c1ccnc(CNc2nc(Nc3ccc4c(c3)CC(=O)N4)ncc2C(F)(F)F)n1)S(C)(=O)=O [PF-00911705]

- Ki (D(1A) dopamine receptor): > 10000 nM
SMILES: CNC(=O)c1ccc(Nc2ncc(C(F)(F)F)c(NCc3nccnc3N(C)S(C)(=O)=O)n2)cc1 [DEFACTINIB]

SMILES: CCOc1cn(-c2ccc(F)cc2C)nc1C(=O)Nc1ccc(Oc2ccnc3cc(OC)c(OC)cc23)c(F)c1
- % of control [6]: < 10%
